Experimental findings from patent publication US10449258B2, “Antibody drug conjugate, intermediate, preparation method, pharmaceutical composition and uses thereof” (XDCEXPLORER (SHANGHAI) CO., LTD., priority 2015, dated 2019) are described below.

In general, IC50 refers to the concentration that inhibits the measured activity by half.

Read-outs that look alike come from different tables or passages of the source.

The subject of data set [1] is Her2-positive human BT474 breast tumor cells. Description: Cytotoxicity assay (growth inhibition, CellTiter-Glo) on BT474. The procedure:
(§1) Her2-positive human BT474 breast tumor cells (BT474 for short), Her2 low expression human MCF-7 breast tumor cells (MCF-7 for short), and human breast tumor cell strain MCF7-Her2 with stable-transfected Her2 outside MCF-7 (MCF-7-Her2 for short) were used (they were prepared by the methods disclosed in the literatures for preparing recombinant cells: Teemu T. Junttila, et al., Breast. Cancer Res. Treat., 2011, 128, 347 and Jeffrey J. Wallin et al., Clin. Cancer Res., 2012, 18, 3901, the contents of which are incorporated herein by reference in their entireties). The growth inhibition of tumor cells by T-CE-040 and T-CE-063 antibody drug conjugates were evaluated. BT474, MCF7-Her2 and MCF-7 were digested with 0.25% (v/v) trypsin and the cells were stripped and then suspended in 100 μL complete medium. 2,000 cells were inoculated in a 96-well plate and cultured, grew adherently overnight at 37° C., then 100 μL T-CE-040 and T-CE-063 antibody drug conjugates with different concentration gradients and the complete medium were added. After 120 hours, relative cell proliferation analysis was performed by adding 50 μL CellTiter-Glo® […] Cell Activation Reagent (CellTiter-GloB Luminescent, Promega).

In data set [2] the test system is Her2 low expression human MCF-7 breast tumor cells. Description: Cytotoxicity assay (growth inhibition, CellTiter-Glo) on MCF-7. To be noted: Homo sapiens, MCF7, 120 h. The procedure: as §1
A general note: In ATP-based viability assays light output follows the ATP content of the culture.

Data set [3] relates to human breast tumor cell strain MCF7-Her2 with stable-transfected Her2. The data set can be described thus: Cytotoxicity assay (growth inhibition, CellTiter-Glo) on MCF7-Her2. The settings on record: Homo sapiens, 120 h. As to the method: as §1
Setting [4] is: Homo sapiens, BT-474, 120 h, read-out: Cytotoxicity assay IC50 BT474, BT474 cells, 120 hours, CellTiter-Glo.
Where [5] appears, read: read-out: Cytotoxicity assay IC50 MCF7, MCF-7 cells, 120 hours, CellTiter-Glo.
Where [6] appears, read: read-out: Cytotoxicity assay IC50 MCF-Her2, MCF7-Her2 cells, 120 hours, CellTiter-Glo.

`COCC(S)(CCC(=O)N(C)[C@H](C)C(=O)OC1CC(=O)N(C)c2cc(cc(OC)c2Cl)C/C(C)=C/C=C/[C@@H](OC)[C@@]2(O)C[C@H](OC(=O)N2)[C@@H](C)[C@@H]2O[C@@]12C)COC` (stereo partly drawn) [CE-023]: the figures for the half-inhibitory concentration (IC50) in data set [1] (setting [4]), in data set [2] (setting [5]) and in data set [3] (setting [6]) were 0.308 µM, 0.46 µM and 0.352 µM, respectively.
Take `COc1cc2cc(c1Cl)N(C)C(=O)C[C@H](OC(=O)[C@@H](C)N(C)C(=O)CCSSC)C1(C)O[C@H]1[C@H](C)C1C[C@@](O)(NC(=O)O1)[C@H](OC)/C=C/C=C(\C)C2` (stereo partly drawn) [DM1-SMe, reference compound]: the IC50 in data set [1] (Homo sapiens, BT-474, 120 h, read-out: Cytotoxicity assay IC50 BT474) stood at 0.0093 µM; in data set [2] (read-out: Cytotoxicity assay IC50 MCF7), 0.0095 µM; in data set [3] (read-out: Cytotoxicity assay IC50 MCF-Her2), 0.0073 µM.
Turning to `COc1cc2cc(c1Cl)N(C)C(=O)C[C@H](OC(=O)[C@H](C)OCCOCCSC1CC(=O)N(C[C@H]3CC[C@H](C(=O)ON4C(=O)CCC4=O)CC3)C1=O)[C@]1(C)O[C@H]1[C@H](C)C1C[C@@](O)(NC(=O)O1)[C@H](OC)/C=C/C=C(\C)C2` (stereo partly drawn) [CE-034], the figures for the IC50 in data set [1] (setting [4]), in data set [2] (setting [5]) and in data set [3] (setting [6]) were 0.0199 µM, 0.0141 µM and 0.0142 µM, respectively.
The corresponding values for `COc1cc2cc(c1Cl)N(C)C(=O)C[C@H](OC(=O)[C@H](C)OCCCSSC)[C@]1(C)O[C@H]1[C@H](C)[C@@H]1C[C@@](O)(NC(=O)O1)[C@H](OC)/C=C/C=C(\C)C2` [CE-027] are 0.015 µM, 0.039 µM and 0.023 µM.
For `COc1cc2cc(c1Cl)N(C)C(=O)C[C@H](OC(=O)[C@H](C)N(C)C(CCSSC)C(F)(F)F)[C@]1(C)O[C@H]1[C@H](C)[C@@H]1C[C@@](O)(NC(=O)O1)[C@H](OC)/C=C/C=C(\C)C2` (stereo partly drawn) [CE-011] the same measures were 0.0012 µM, 0.0024 µM and 0.0015 µM.
Regarding `COCC(C)(CCC(=O)N(C)[C@@H](C)C(=O)O[C@H]1CC(=O)N(C)c2cc(cc(OC)c2Cl)C/C(C)=C/C=C/[C@@H](OC)[C@@]2(O)C[C@H](OC(=O)N2)[C@@H](C)[C@@H]2O[C@@]12C)SSC` (stereo partly drawn) [CE-013], the IC50 in data set [1] (read-out: Cytotoxicity assay IC50 BT474, BT474 cells, 120 hours, CellTiter-Glo) is 0.021 µM; in data set [2] (setting [5]), 0.0043 µM; in data set [3] (setting [6]), 0.0059 µM.
In the case of `COc1cc2cc(c1Cl)N(C)C(=O)C[C@H](OC(=O)[C@H](C)OCCOCCOCCNC(=O)CBr)[C@]1(C)O[C@H]1[C@H](C)C1C[C@@](O)(NC(=O)O1)[C@H](OC)/C=C/C=C(\C)C2` [CE-050], the IC50 in data set [1] (setting [4]) worked out at 0.0261 µM; in data set [2] (setting [5]), 0.0144 µM; in data set [3] (setting [6]), 0.007 µM.
`COc1cc2cc(c1Cl)N(C)C(=O)C[C@H](OC(=O)[C@H](C)OCCOCCOCCOCCOCCOCCNC(=O)CBr)[C@]1(C)O[C@H]1[C@H](C)C1C[C@@](O)(NC(=O)O1)[C@H](OC)/C=C/C=C(\C)C2` [CE-052a]: the IC50 in data set [1] (setting [4]) amounted to 0.0331 µM; in data set [2] (setting [5]) it was 0.0184 µM; in data set [3] (setting [6]) it was 0.0098 µM.
The corresponding values for `COCC(CCC(=O)N(C)[C@H](C)C(=O)OC1CC(=O)N(C)c2cc(cc(OC)c2Cl)C/C(C)=C/C=C/[C@@H](OC)[C@@]2(O)C[C@H](OC(=O)N2)[C@@H](C)[C@@H]2O[C@@]12C)(COC)SSC` (stereo partly drawn) [CE-016] are 0.0234 µM, 0.0677 µM and 0.0427 µM.
For `COCC(C)(CCC(=O)N(C)[C@H](C)C(=O)OC1CC(=O)N(C)c2cc(cc(OC)c2Cl)C/C(C)=C/C=C/[C@@H](OC)[C@@]2(O)C[C@H](OC(=O)N2)[C@@H](C)[C@@H]2O[C@@]12C)SSC` (stereo partly drawn) [CE-014] the same measures were 0.0196 µM, 0.127 µM and 0.0688 µM.
The corresponding values for `COc1cc2cc(c1Cl)N(C)C(=O)C[C@H](OC(=O)COCCCSC1CC(=O)N(C[C@H]3CC[C@H](C(=O)ON4C(=O)CCC4=O)CC3)C1=O)[C@]1(C)O[C@H]1[C@H](C)C1C[C@@](O)(NC(=O)O1)[C@H](OC)/C=C/C=C(\C)C2` (stereo partly drawn) [CE-048] are 0.266 µM, 0.171 µM and 0.0721 µM.
